Experimental data: ChEMBL document CHEMBL1137044, “Benzothiophene and naphthalene derived constrained SERMs” (Bioorg Med Chem Lett, 2004)

Experiments:
[1] = Inhibition of [3H]estradiol binding to Estrogen receptor alpha
Estrogen receptor [2] = molecular target: T1, Estrogen receptor (Homo sapiens, UniProt Q92731+P03372); test: Antagonist effect against 10 pM 17-beta-estradiol induced MCF-7 cell proliferation; format: functional, cell-based
Estrogen receptor [3] = molecular target: T1, Estrogen receptor; test: Agonist activity as alkaline phosphatase induction in Ishikawa endometrial cells compared to E2; format: functional, cell-based
[4] = Inhibition of [3H]estradiol binding to Estrogen receptor beta
Estrogen receptor [5] = molecular target: T1, Estrogen receptor; format: functional, cell-based; conditions: ishikawa

| SMILES | Ki [1] [nM] | IC50 (Estrogen receptor [2]) [nM] | EC50 (Estrogen receptor [3]) [nM] | Ki [4] [nM] | IC50 (Estrogen receptor [5]) [nM] |
| --- | --- | --- | --- | --- | --- |
| Oc1ccc2c(c1)sc1cc3ccc(O)cc3c(-c3ccc(C(O)CCN4CCCCC4)cc3)c12 (stereo not drawn) | 0.4 | 1 | 1.6 | 0.3 | 690 |
| Oc1ccc2c(ccc3cc4ccc(O)cc4c(-c4ccc(OCCN5CCCCC5)cc4)c32)c1 | 0.8 | 57 | 10 | 0.5 | 820 |
| Oc1ccc2c(c1)C(c1ccc(OCCN3CCCCC3)cc1)c1c(ccc3cc(O)ccc13)C2 (stereo not drawn) | 1 | 6.6 | 2.6 | 3.2 | 130 |
| Oc1ccc2c(c1)Cc1sc3cc(O)ccc3c1C2c1ccc(C(O)CCN2CCCCC2)cc1 (stereo not drawn) | 0.7 | 0.7 | 0.4 | 1.3 | 45 |
| Oc1ccc2c3c(ccc2c1)Cc1c(O)cccc1C3c1ccc(OCCN2CCCCC2)cc1 (stereo not drawn) | 1.1 | 2.9 | 0.7 | 5.4 | 50 |
| Oc1ccc2c3c(sc2c1)Cc1ccccc1C3c1ccc(C(O)CCN2CCCCC2)cc1 (stereo not drawn) | 2.4 | 17 | 3.5 | 5.3 | 710 |
| Oc1ccc2c3c(sc2c1)Cc1cccc(O)c1C3c1ccc(C(O)CCN2CCCCC2)cc1 (stereo not drawn) | 2.6 | 42 | 3.1 | 14 | 680 |
| Oc1ccc2c(c1)C(c1ccc(C(O)CCN3CCCCC3)cc1)c1c(sc3cc(O)ccc13)C2 (stereo not drawn) | 0.5 | 0.9 | 0.9 | 0.9 | 53 |
| CCC(=C(c1ccc(O)cc1)c1ccc(OCCN(C)C)cc1)c1ccccc1 | 0.5 |  |  | 0.5 |  |
| Oc1ccc2c3c(ccc2c1)Cc1cccc(O)c1C3c1ccc(OCCN2CCCCC2)cc1 (stereo not drawn) | 7.7 | 68 | 28 | 40 | 580 |
| Oc1ccc2c(c1)Cc1ccc3cc(O)ccc3c1C2c1ccc(OCCN2CCCCC2)cc1 (single isomer, unassigned) | 0.7 |  |  | 4.4 |  |
| Oc1ccc2c(c1)Cc1ccc3cc(O)ccc3c1C2c1ccc(OCCN2CCCCC2)cc1 (stereo in doubt; form 1) | 1.1 |  |  | 5.5 |  |
| Oc1ccc2c(c1)Cc1ccc3cc(O)ccc3c1C2c1ccc(OCCN2CCCCC2)cc1 (stereo in doubt; form 2) | 0.8 |  |  | 4.2 |  |
